Reference: publication PMC7946667 (Cancer Chemotherapy and Pharmacology, 2021)
Several values for one entry are separate records, joined by “and”; a condition that tells them apart may be missing. Equal values may be shown once. Read-outs that look alike come from different tables or passages of the source.

Key:
CYP3A [1] = experiment: Clinical DDI study: pharmacokinetics of midazolam (CYP3A probe substrate) and 1′-hydroxymidazolam with and without ceritinib; type: in vivo, human; details: for Metabolite-to-parent ratio: AUC0–144 h based, molecular weight corrected; for AUC(0-inf): read-out: AUC0-inf, adjusted geometric mean
Excerpt: This was a multicenter, open-label, single sequence, crossover phase I study (ClinicalTrials.gov identifier: NCT02422589) and was divided into two phases, DDI phase and post-DDI treatment phase (Fig. 1). Patients were recruited from 10 clinical centers located across 4 countries, namely Spain (n = 3), United States (n = 3), Italy (n = 3), and Denmark (n = 1).
To assess the pharmacokinetics of probe substrates, blood samples were obtained on Days 1 and 28 at pre-dose and at 0.25, 0.5, 1, 2, 3, 4, 6, 8, 10, 24, 48, 72, 96, 120, and 144 h post-dose. […] A blood sample for CYP2C9 genotyping was collected on Day 1 of the DDI phase from all participating patients. Patients were categorized as CYP2C9 poor, intermediate, or extensive metabolizers based on the genotype testing results. This assessment was of exploratory nature and was not used as inclusion/exclusion criteria in the study.
A linear mixed-effects model was fitted to the log-transformed primary PK parameters (Cmax, AUC0-144 h, and AUC0-inf) and included a fixed effect for treatment and a random effect for subject.

CYP2C9 = details: for AUC0-inf, adjusted geometric mean / Cmax, adjusted geometric mean: linear mixed effects model; for Tmax: median [min, max]; for AUC0–144 h / Cmax: patient plasma; for AUC0–144 h / Cmax / Metabolite-to-parent ratio: geometric mean (CV%); for Metabolite-to-parent ratio: AUC0–144 h based, molecular weight corrected
CYP3A [2] = details: PBPK, cited from earlier work
[3] = midazolam 2.5 mg single oral dose + ceritinib 750 mg QD at steady state (Day 28), patient plasma, geometric mean (CV%)
[4] = midazolam 2.5 mg single oral dose alone (Day 1), patient plasma, geometric mean (CV%)
[5] = midazolam + ceritinib vs midazolam alone
[6] = treatment warfarin + ceritinib 750 mg QD for 3 weeks
[7] = warfarin 10 mg single oral dose + ceritinib 750 mg QD at steady state (Day 28)
[8] = warfarin 10 mg single oral dose alone (Day 1)
[9] = warfarin + ceritinib / warfarin alone
[10] = midazolam 2.5 mg single oral dose + ceritinib 750 mg QD (Day 28), geometric mean (CV%)
[11] = midazolam 2.5 mg single oral dose alone (Day 1), geometric mean (CV%)

SMILES: OCc1ncc2n1-c1ccc(Cl)cc1C(c1ccccc1F)=NC2 [1′-hydroxymidazolam]
- Tmax (CYP3A [1]; midazolam 2.5 mg single oral dose + ceritinib 750 mg QD (Day 28), median [min, max]): 0.583 [0.250; 2.53] h
- AUC0–144 h (CYP3A [1]; [3]): 12.1 (87.0) h*ng/mL
- Cmax (CYP3A [1]; [3]): 1.90 (73.8) ng/mL
- Tmax (CYP3A [1]; midazolam 2.5 mg single oral dose alone (Day 1), median [min, max]): 0.500 [0.217; 2.00] h
- AUC0–144 h (CYP3A [1]; [4]): 14.7 (74.4) h*ng/mL
- Cmax (CYP3A [1]; [4]): 5.41 (74.1) ng/mL
- Metabolite-to-parent ratio (CYP3A [1]; midazolam + ceritinib 750 mg QD (Day 28), geometric mean (CV%)): 2.9% and 2.89 (66.7) %
- decrease in the metabolite-to-parent AUC ratio (CYP3A [1]; [5]): 85%
- Metabolite-to-parent ratio (CYP3A [1]; midazolam alone (Day 1), geometric mean (CV%)): 19.3% and 19.3 (66.3) %

SMILES: CC(=O)C[C@@H](c1ccccc1)c1c(O)c2ccc(O)cc2oc1=O [7-Hydroxy-S-warfarin, 7-hydroxy-S-warfarin]
- AUC0-inf, adjusted geometric mean (CYP2C9; [6]): 3330 ng·h/mL
- Cmax, adjusted geometric mean (CYP2C9; [6]): 34.8 ng/mL
- AUC0-inf, adjusted geometric mean (CYP2C9; treatment warfarin alone): 3090 ng·h/mL
- Cmax, adjusted geometric mean (CYP2C9; treatment warfarin alone): 39.1 ng/mL
- Tmax (CYP2C9; warfarin 10 mg single oral dose + ceritinib 750 mg QD (Day 28)): 47.2 [8.50; 73.7] h
- AUC0–144 h (CYP2C9; [7]): 3320 (64.1) h*ng/mL
- Cmax (CYP2C9; [7]): 34.9 (61.6) ng/mL
- Tmax (CYP2C9; [8]): 24.2 [2.97; 49.9] h
- AUC0–144 h (CYP2C9; [8]): 2910 (61.8) h*ng/mL
- Cmax (CYP2C9; [8]): 39.7 (60.3) ng/mL
- Metabolite-to-parent ratio (CYP2C9; warfarin + ceritinib 750 mg QD (Day 28)): 11.7 (58.2) %
- Metabolite-to-parent ratio (CYP2C9; warfarin + ceritinib 750 mg QD (Day 28), listed as 7-hydroxy-S-warfarin): 11.7%
- AUC0-inf geometric mean ratio (90% CI) (CYP2C9; [9]): 1.08
- Cmax geometric mean ratio (90% CI) (CYP2C9; [9]): 0.890
- decrease in the metabolite-to-parent AUC ratio (CYP2C9; warfarin + ceritinib vs warfarin alone): 18%
- Metabolite-to-parent ratio (CYP2C9; warfarin alone (Day 1)): 14.3 (66.6) %
- Metabolite-to-parent ratio (CYP2C9; warfarin alone (Day 1), listed as 7-hydroxy-S-warfarin): 14.3%

SMILES: Cc1ncc2n1-c1ccc(Cl)cc1C(c1ccccc1F)=NC2 [Midazolam, midazolam]
- Tmax (CYP3A [1]; human, plasma, oral): ~1 h
- AUC(0-inf) (CYP3A [1]; human, plasma, oral, treatment midazolam + ceritinib 750 mg QD for 3 weeks, linear mixed effects model): 393 ng·h/mL
- Cmax (CYP3A [1]; human, plasma, oral, treatment midazolam + ceritinib 750 mg QD for 3 weeks, linear mixed effects model, read-out: Cmax, adjusted geometric mean): 42 ng/mL
- AUC(0-inf) (CYP3A [1]; human, plasma, oral, treatment midazolam alone, linear mixed effects model): 72.5 ng·h/mL
- Cmax (CYP3A [1]; human, plasma, oral, treatment midazolam alone, linear mixed effects model, read-out: Cmax, adjusted geometric mean): 23 ng/mL
- half-life (CYP3A [1]; human, plasma, po, 2.5 mg, midazolam 2.5 mg single oral dose alone (Day 1), geometric mean (CV%)): 6 h
- Cmax (CYP3A [1]; human, plasma, po, 2.5 mg, midazolam 2.5 mg single oral dose alone (Day 1), patient plasma, geometric mean (CV%), read-out: Cmax): 23 ng/mL
- AUC(0-t) (CYP3A [1]; human, plasma, po, 2.5 mg, read-out: AUC0–144 h): 70.2 ng·h/mL
- Tmax (CYP3A [1]; human, plasma, po, 2.5 mg, read-out: Tmax): 0.5 h
- half-life (CYP3A [1]; human, plasma, po, midazolam 2.5 mg single oral dose + ceritinib 750 mg QD (Day 28), geometric mean (CV%)): 15 h
- Cmax (CYP3A [1]; human, plasma, po, midazolam 2.5 mg single oral dose + ceritinib 750 mg QD at steady state (Day 28), patient plasma, geometric mean (CV%), read-out: Cmax): 42 ng/mL
- CL/F (CYP3A [1]; [10]): 6.36 L/h
- T1/2 (CYP3A [1]; [10]): 15.4 (37.4) h
- CL/F (CYP3A [1]; [11]): 34.5 L/h
- T1/2 (CYP3A [1]; [11]): 6.05 (47.8) h
- decrease in apparent clearance (CL/F) of midazolam (CYP3A [1]; [5]): approximately 80%
- predicted increase of midazolam AUC (CYP3A [2]; ceritinib dosed to steady-state + single oral dose midazolam 5 mg): 6 fold
- predicted increase of midazolam AUC (CYP3A [2]; single dose ceritinib 750 mg + single oral dose midazolam 5 mg): 30%
